In patent EP0072987A1 (priority 1981, dated 1983) one finds T/C-Wert data, which are given here for two molecules.

Several values for one entry are separate records, joined by “and”; a condition that tells them apart may be missing. Equal values may be shown once.

The subject of the assay is Tumorart PS 2684. Set-up: species or system Mäusen. The conditions noted are these: in vivo.

As to `O=P1(N(CC2CO2)CC2CO2)OCCCN1CC1CO1` (centres unmarked) [Beispiel 1, 2H-1,3,2-Oxazaphosphorin, 2-(bis-glycidyl)aminotetrahydro-2-oxid-3-glycidyl-], the T/C-Wert is 158 and 132.

`CN(CC1CO1)P1(=O)OCCCN1CC(Cl)CO` (centres unmarked) [Beispiel 2, 2H-1,3,2-Oxazaphosphorin, 2-(glycidyl-methyl)amino-2-oxid-3-(3-hydroxy-2-chloro)-propyl- . tetrahvdro -]: the T/C-Wert is 158 and 134.
